The record followed here is patent publication US20070037785A1, “Novel dipeptidyl peptidase IV inhibitors used for functionally influencing different cells and treating immunological, infammatory, neuronal, and other diseases” (priority 2003, published 2007).

Sequence of dipeptidyl peptidase IV (P27487 whole entry, species assumed): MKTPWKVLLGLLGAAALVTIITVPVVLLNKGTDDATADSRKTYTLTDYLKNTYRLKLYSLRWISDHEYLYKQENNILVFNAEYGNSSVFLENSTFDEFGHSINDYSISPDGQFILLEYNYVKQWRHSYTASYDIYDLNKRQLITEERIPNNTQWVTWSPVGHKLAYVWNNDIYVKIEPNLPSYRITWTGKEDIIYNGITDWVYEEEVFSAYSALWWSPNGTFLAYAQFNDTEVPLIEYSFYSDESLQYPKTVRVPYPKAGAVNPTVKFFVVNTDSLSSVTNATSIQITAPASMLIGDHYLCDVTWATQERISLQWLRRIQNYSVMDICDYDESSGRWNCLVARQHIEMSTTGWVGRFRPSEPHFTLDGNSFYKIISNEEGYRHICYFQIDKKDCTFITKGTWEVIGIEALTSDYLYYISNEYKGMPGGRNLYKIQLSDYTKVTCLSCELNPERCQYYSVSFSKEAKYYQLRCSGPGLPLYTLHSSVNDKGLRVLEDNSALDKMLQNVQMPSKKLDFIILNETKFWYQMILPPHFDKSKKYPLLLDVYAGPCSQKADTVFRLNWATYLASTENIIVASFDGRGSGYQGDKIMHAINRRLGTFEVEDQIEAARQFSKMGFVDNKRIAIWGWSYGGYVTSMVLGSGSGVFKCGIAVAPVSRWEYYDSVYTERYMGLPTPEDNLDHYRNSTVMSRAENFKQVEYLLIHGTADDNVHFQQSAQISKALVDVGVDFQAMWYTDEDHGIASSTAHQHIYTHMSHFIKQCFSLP

The first experiment concerns the target dipeptidyl peptidase IV (Homo sapiens, UniProt P27487). The experiment can be described thus: biochemical. Conditions: values marked with "*" are ID50 values; read-out: IC50DPIV, values marked with "*" = ID50.
For the compound `CC1(C)NCC(c2ccccc2)CC1O` (stereo not shown) [D4.088], the IC50 stood at 96.2 µM.
Same read-out and setting: the figure for `O=C(Oc1cccc(-n2cnnn2)c1)C1CC1` [D4.089] is 98.4 µM.
Still for that read-out and setting: the figure for `Oc1ccc(-c2csc(Nc3ncccn3)n2)cc1O` [D4.095] is 163 µM.
In the case of `CC(C)c1ccc(N2CC(C(=O)Nc3ccc(Br)cc3Br)CC2=O)cc1` (stereo not shown) [D4.096], the IC50 was found to be 172 µM.
Same read-out and setting: the figure for `O=C1CSCC(=O)N1c1ccc(F)cc1F` [D4.100] is 216 µM; for `CN(Cc1ccccc1)c1ccc(N2C(=O)CCCC2=O)cc1[N+](=O)[O-]` [D4.101] it is 231 µM; for `CCCc1c(C)nc(N)c(C#N)c1-c1ccccc1` [D4.104] it is 255 µM.
On the same count and under the same terms, the figure for `CS(=O)(=O)N1CCN(c2ccc([N+](=O)[O-])c(NCc3ccc(Cl)cc3)c2)CC1` [D4.112] is 361 µM; for `N#C/C(=C\c1ccc(-c2ccc(Cl)cc2)o1)C(=O)Nc1cccc([N+](=O)[O-])c1` [D4.114] it is 394 µM.
The same measure, in the same setting: the result for `N#C/C(=C\c1ccc(N2Cc3ccccc3C2)cc1)C(=O)NCc1ccco1` [D4.118] reads 456 µM; that for `O=C(c1cc(C(=O)N2CCOCC2)cc([N+](=O)[O-])c1)N1CCOCC1` [D5.009], 10.7 µM.
Regarding `CCOC(=O)c1c(CNC(=O)CN2CCN(c3nc4c([nH]3)c(=O)[nH]c(=O)n4C)CC2)[nH]c2ccc(F)cc12` [D5.043], the IC50 worked out at 69.8 µM.
For `CC12NCC(c3ccccc3)CC1O2` (stereo not shown) [D5.047], the IC50 is 96.6 µM.
Take `CS(=O)(=O)N1CCN(c2ccc([N+](=O)[O-])c(NCc3ccc(Cl)cc3)c2)CC1` [D5.053]: the IC50 was found to be 361 µM.
Same read-out and setting: the figure for `O=C(Nc1cccc(/N=C/c2cc(/N=N\c3ccccc3Cl)ccc2O)c1)c1ccco1` [D6.003] is 2.5 µM.

The same experiment, now with this note: values without "*" = IC-50; read-out: IC50DPIV.
On to `CCCOC(=O)c1cc(-c2ccc(/C=C3\C(=O)N(CCCO)C(=O)C(C#N)=C3C)o2)ccc1Cl` [D4.081], for which the IC50 amounted to 76.3 µM.
Consider `CCCOC(=O)c1cc(-c2ccc(/C=C3/C(=O)N(CC(C)O)C(=O)C(C#N)=C3C)o2)ccc1Cl` (stereo not shown) [D4.083], for which the IC50 was determined as 82.2 µM.
As for `NCc1ccccc1-n1cccc1` [D4.085], the IC50 was 92.5 µM.
For `O=C1CSCC(=O)N1c1ccc(F)cc1` [D4.086], the IC50 was found to be 94.5 µM.
Still for that read-out and setting: the figure for `CC1=C(C#N)C(=O)N=C(O)/C1=C\c1ccc(-c2ccc(Cl)cc2Cl)o1` [D4.087] is 95.8 µM; for `Cc1[nH]c2ccccc2c1C(c1cc(Cl)ccc1O)N1CCOCC1` (stereo not shown) [D5.007] it is 12.1 µM; for `COc1ccc(N2CCN(c3nc4c(c(=O)[nH]c(=O)n4C)n3Cc3ccccc3)CC2)cc1` [D5.020] it is 19.2 µM.
On the same count and under the same terms, the figure for `CCOC(=O)C(NC(=O)c1ccc(OC)cc1)(N1CCOCC1)C(F)(F)F` (stereo not shown) [D5.021] is 29.2 µM; for `CCCn1c(N2CCN(CC(=O)c3c(C)n(C)c4ccccc34)CC2)nc2c1c(=O)[nH]c(=O)n2C` [D5.023] it is 30.8 µM; for `O=C1NCCCCC1Nc1ccc(N2C(=O)CCCC2=O)cc1[N+](=O)[O-]` (stereo not shown) [D5.026] it is 34.1 µM.
Regarding `Cc1ccc(C(=O)N/C(=C\c2ccco2)C(=O)N2CCOCC2)cc1C` [D5.033], the IC50 amounted to 46.5 µM.
The same measure, in the same setting: the figure for `Cn1c(=O)n(Cc2ccccc2)c(=O)c2c1nc(N1CCNCC1)n2Cc1ccccc1` [D5.034] is 48.3 µM; for `CCN(CC)C(=O)C1CCCN(c2ccc([N+](=O)[O-])cc2/C=N/NC(=O)c2cccc([N+](=O)[O-])c2)C1` (stereo not shown) [D5.036] it is 54 µM; for `O=C1CCCC(=O)N1c1ccc(NCCc2ccc(O)cc2)c([N+](=O)[O-])c1` [D5.037] it is 54.8 µM.
For `CCOC(=O)C(NC(=O)c1ccccc1)(N1CCOCC1)C(F)(F)F` (stereo not shown) [D5.041], the IC50 worked out at 61.9 µM.
On the same count and under the same terms, the result for `CN(C)CCNc1nc2c(c(=O)n(C)c(=O)n2C)n1Cc1ccccc1Cl` [D6.006] reads 7.5 µM.
As for `CC(C)(C)C(=O)Nc1ccc(C(=O)Nc2nccs2)cc1` [D6.007], the IC50 stood at 7.5 µM.
Same read-out and setting: the figure for `Cc1ccc(C2N(CC(C)C)CC(C(=O)c3c(C)cccc3C)N2CCCN2CCCC2=O)cc1` (stereo not shown) [D6.008] is 7.5 µM.
Same read-out and setting: the figure for `O=C(Nc1cccc(/N=C/c2cc(I)cc(I)c2O)c1)c1ccco1` [D6.010] is 9.2 µM; for `Cc1cccc(-n2c(=O)c3c4c(sc3n3c(CC(C)C(=O)N5CCOCC5)nnc23)COC(C(C)C)C4)c1` (stereo not shown) [D6.012] it is 10.1 µM; for `Nc1nonc1-n1nnc(C(=O)NN=C2c3ccccc3-c3ccccc32)c1-c1ccccc1` [D6.013] it is 10.1 µM.
On the same count and under the same terms, the figure for `CCOC(=O)CC(N)c1cccs1` (stereo not shown) [D6.018] is 15.2 µM; for `CCCn1c(N2CCN(CC(=O)c3c(C)n(C)c4ccccc34)CC2)nc2c1c(=O)[nH]c(=O)n2C` [D6.019] it is 15.2 µM; for `CC(C)(C)S(=O)(=O)C1=CN2C3=C(CCCC3)NC2C=C1` (stereo not shown) [D6.020] it is 15.6 µM.
On to `O=C(NCc1ccco1)C(=O)Nc1ccc(Br)cc1` [D6.021], for which the IC50 is 16.1 µM.
Same read-out and setting: the figure for `CCOC(=O)n1ccc(C(=O)Nc2ccccc2F)n1` [D6.026] is 17.9 µM; for `CC1CCN(C(=O)/C(=C\c2ccco2)NC(=O)c2ccc(Cl)cc2)CC1` [D6.027] it is 18.5 µM; for `CCn1c(N2CCN(c3ccc(OC)cc3)CC2)nc2c1c(=O)[nH]c(=O)n2C` [D6.028] it is 19.2 µM.
With `O=C(/C=C/c1ccco1)c1ccccc1` [D6.029], the IC50 was 19.7 µM.
The same measure, in the same setting: the figure for `CCSc1nnc2n(-c3ccc(OC)cc3)c(=O)c3c4c(sc3n12)CCCC4` [D6.031] is 20.2 µM.
Still for that read-out and setting: the result for `Cc1cc([N+](=O)[O-])c(C)cc1-c1ccc(/C=C/c2cc(C(F)(F)F)nc(=O)[nH]2)o1` [D6.034] reads 20.6 µM; that for `Cc1ccccc1C(=O)N/N=C/c1ccc([N+](=O)[O-])o1` [D6.036], 20.9 µM; that for `CC(C)C1Cc2c(sc3c2c(=O)n(Cc2ccccc2)c2nnc(SCC(=O)O)n32)CO1` (stereo not shown) [D6.037], 18.9 µM.
The same measure, in the same setting: the result for `CNc1nc2c(c(=O)[nH]c(=O)n2C)n1Cc1ccccc1Cl` [D6.043] reads 27.8 µM; that for `Cc1cc2ccccc2n1CCNC(=O)c1cccs1` [D6.044], 28.8 µM.
As for `CCCn1c(N2CCN(CC(=O)c3c[nH]c4ccccc34)CC2)nc2c1c(=O)[nH]c(=O)n2C` [D6.046], the IC50 was 30.8 µM.
The same measure, in the same setting: the figure for `N#Cc1c(CC(=O)C(C(F)(F)F)C(F)(F)F)sc2c1CCC2` [D6.047] is 30.9 µM.
Same read-out and setting: the figure for `CCCC(=O)Cc1ccc(N(C(=O)CCC)S(=O)(=O)c2cccs2)cc1` [D6.048] is 31.3 µM; for `CN(/N=C/c1sc(=O)[nH]c1Cl)c1ccccc1` [D6.049] it is 32.4 µM.
Take `Cc1ccc(C(=O)C2(C)N(O)C(C)C(c3cccs3)=[N+]2[O-])cc1` (stereo not shown) [D6.053]: the IC50 was found to be 34.1 µM.
On the same count and under the same terms, the result for `CCOC(=O)c1c(C)oc2c1c1c(c3ccccc32)OCN(C2CCS(=O)(=O)C2)C1` (stereo not shown) [D6.054] reads 34.2 µM; that for `CC1=C(C#N)C(=O)N(CCCO)C(=O)/C1=C\c1ccc(-c2cc(C)c(C)cc2[N+](=O)[O-])o1` [D6.055], 34.8 µM.
On the same count and under the same terms, the result for `CCOC(=O)c1cn(-c2ccc(N3C(=O)CSCC3=O)cc2)nc1C` [D6.056] reads 37.4 µM; that for `Cc1ccccc1NC(=O)CSC1=NCCN1` [D6.057], 38.1 µM; that for `N#Cc1c(NC(=O)C(C(F)(F)F)C(F)(F)F)sc2c1CCCC2` [D6.058], 39.5 µM.
Still for that read-out and setting: the result for `CCc1c(C)[nH]c2c1/C(=N\OC(=O)C(C)C)CCC2` [D6.062] reads 43.8 µM; that for `Cn1c(=O)c2c(nc(NCCO)n2Cc2ccccc2Cl)n(C)c1=O` [D6.063], 44 µM; that for `C=CCOC(=O)c1cc(-c2ccc(/C=C3/C(=O)N(CCCO)C(=O)C(C#N)=C3C)o2)ccc1Cl` [D6.065], 44.6 µM.
Regarding `Cc1ccc(C(=O)N/C(=C\c2ccco2)C(C)N2CCOCC2)cc1C` (stereo not shown) [D6.067], the IC50 was 46.5 µM.
As for `CC1C(=O)N(Cc2ccccc2)C(=O)c2c1nc(N1CCNCC1)n2Cc1ccccc1` (stereo not shown) [D6.069], the IC50 was found to be 48.3 µM.
In the case of `CCCCOC(=O)c1cc(-c2ccc(/C=C3/C(=O)N(CC(C)O)C(=O)C(C#N)=C3C)o2)ccc1Cl` (stereo not shown) [D6.070], the IC50 came out at 49 µM.
On the same count and under the same terms, the result for `CC1=C(C#N)C(=O)N(CCO)C(=O)/C1=C\c1ccc(-c2cc(Cl)ccc2Cl)o1` [D6.071] reads 51.7 µM; that for `Cc1ccc(Cn2cccc2/C=N/NC(=S)Nc2ccc(C)c(C)c2)cc1` [D6.078], 55.2 µM.
For the compound `CCCc1cccc(/C=N/NC(=O)c2cc(-c3ccc(F)cc3)n[nH]2)c1O` [D6.079], the IC50 is 55.3 µM.
Consider `CCOc1ccc(/C=N/NC(=O)c2cc(-c3c(OC)ccc4ccccc34)n[nH]2)cc1` [D6.081], for which the IC50 came to 56.3 µM.
Same read-out and setting: the figure for `CCOC(=O)c1cc(-c2ccc(/C=C3/C(=O)NC(=O)C(C#N)=C3C)o2)ccc1Cl` [D6.082] is 56.7 µM; for `CC1CCc2c(sc(NC(=O)C(C(F)(F)F)C(F)(F)F)c2C#N)C1` (stereo not shown) [D6.083] it is 59.8 µM.
For the compound `Cc1ccc(/C=N/NC(=O)c2cccc(I)c2)o1` [D6.084], the IC50 was 57.4 µM.
On the same count and under the same terms, the figure for `CCC(N)C(=O)c1cccs1` (stereo not shown) [D6.085] is 61.4 µM; for `CCOC(=O)c1ccc(-c2ccc(/C=C3\C(=O)N(CCO)C(=O)C(C#N)=C3C)o2)cc1` [D6.087] it is 65.9 µM; for `CC1=C(C#N)C(=O)N(CC(C)O)C(=O)/C1=C/c1ccc(-c2ccc(Br)cc2)o1` (stereo not shown) [D6.089] it is 73.8 µM.
The same measure, in the same setting: the result for `Cc1ccc(C(=O)N/C(=C/c2ccco2)C(=O)N(C)C)cc1` [D6.091] reads 47.7 µM.
Same read-out and setting: the figure for `CCCOC(=O)c1cc(-c2ccc(/C=C3\C(=O)N(CCCO)C(=O)C(C#N)=C3C)o2)ccc1Cl` [D6.092] is 76.3 µM; for `CCCOC(=O)c1cc(-c2ccc(/C=C3/C(=O)N(CC(C)O)C(=O)C(C#N)=C3C)o2)ccc1Cl` (stereo not shown) [D6.095] it is 82.2 µM; for `COc1ccc(-c2ccc(C3Nc4ccc5ccccc5c4C4=C3C(=O)CC(C)(C)C4)o2)cc1Cl` (stereo not shown) [D6.098] it is 87.9 µM.
In the case of `CC1=C(C#N)C(=O)N=C(O)/C1=C\c1ccc(-c2ccc(Cl)cc2Cl)o1` [D6.101], the IC50 was determined as 95.8 µM.
On the same count and under the same terms, the figure for `COC(=O)c1ccc(NC(=O)/C(=C\c2cccc([N+](=O)[O-])c2)NC(=O)c2ccc(Br)o2)cc1` [D6.108] is 115 µM.
